Assay results taken from PubChem BioAssay (NCI).
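Five concentrations, 48 hours, 96-well plates. TGI: concentration producing complete growth inhibition.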

Key:
Test in all cases: NCI anticancer screen, dose series, 48 h
786-0 renal = tested on: 786-0 renal
A498 renal = tested on: A498 renal
A549 NSCLC = tested on: A549 NSCLC
ACHN renal = tested on: ACHN renal
BT-549 breast = tested on: BT-549 breast
CAKI-1 renal = tested on: CAKI-1 renal
CCRF-CEM leukemia = tested on: CCRF-CEM leukemia
COLO 205 colon = tested on: COLO 205 colon
DU-145 prostate = tested on: DU-145 prostate
EKVX NSCLC = tested on: EKVX NSCLC
HCC-2998 colon = tested on: HCC-2998 colon
HCT-116 colon = tested on: HCT-116 colon
HCT-15 colon = tested on: HCT-15 colon
HL-60(TB) leukemia = tested on: HL-60(TB) leukemia
HOP-62 NSCLC = tested on: HOP-62 NSCLC
HOP-92 NSCLC = tested on: HOP-92 NSCLC
HS 578T breast = tested on: HS 578T breast
HT29 colon = tested on: HT29 colon
IGROV1 ovarian = tested on: IGROV1 ovarian
K-562 leukemia = tested on: K-562 leukemia
KM12 colon = tested on: KM12 colon
LOX IMVI melanoma = tested on: LOX IMVI melanoma
M14 melanoma = tested on: M14 melanoma
MALME-3M melanoma = tested on: MALME-3M melanoma
MCF7 breast = tested on: MCF7 breast
MDA-MB-231 breast = tested on: MDA-MB-231 breast
MDA-MB-435 = tested on: MDA-MB-435
MDA-N = tested on: MDA-N
MOLT-4 leukemia = tested on: MOLT-4 leukemia
NCI-H226 lung = tested on: NCI-H226 lung
NCI-H23 lung = tested on: NCI-H23 lung
NCI-H460 lung = tested on: NCI-H460 lung
NCI-H522 lung = tested on: NCI-H522 lung
NCI/ADR-RES ovarian = tested on: NCI/ADR-RES ovarian
OVCAR-3 ovarian = tested on: OVCAR-3 ovarian
OVCAR-4 ovarian = tested on: OVCAR-4 ovarian
OVCAR-5 ovarian = tested on: OVCAR-5 ovarian
OVCAR-8 ovarian = tested on: OVCAR-8 ovarian
PC-3 prostate = tested on: PC-3 prostate
RPMI-8226 leukemia = tested on: RPMI-8226 leukemia
RXF 393 renal = tested on: RXF 393 renal
SF-268 CNS = tested on: SF-268 CNS
SF-295 CNS = tested on: SF-295 CNS
SF-539 CNS = tested on: SF-539 CNS
SK-MEL-2 melanoma = tested on: SK-MEL-2 melanoma
SK-MEL-28 melanoma = tested on: SK-MEL-28 melanoma
SK-MEL-5 melanoma = tested on: SK-MEL-5 melanoma
SK-OV-3 ovarian = tested on: SK-OV-3 ovarian
SN12C renal = tested on: SN12C renal
SNB-19 CNS = tested on: SNB-19 CNS
SNB-75 CNS = tested on: SNB-75 CNS
SR leukemia = tested on: SR leukemia
SW-620 colon = tested on: SW-620 colon
T-47D breast = tested on: T-47D breast
TK-10 renal = tested on: TK-10 renal
U251 CNS = tested on: U251 CNS
UACC-257 melanoma = tested on: UACC-257 melanoma
UACC-62 melanoma = tested on: UACC-62 melanoma
UO-31 renal = tested on: UO-31 renal

Cc1ccc(S(=O)(=O)/N=C(\NO)Nc2ccc(Cl)c(Cl)c2)cc1 was tested, and the TGI (786-0 renal) was 16.2 µM, the TGI (A498 renal) was 23.7 µM and the TGI (A549 NSCLC) was 26.9 µM. For the same compound, the TGI (ACHN renal) was 24.9 µM, the TGI (BT-549 breast) was 23.8 µM and the TGI (CAKI-1 renal) was 19.2 µM. The TGI (CCRF-CEM leukemia) was 15.9 µM, the TGI (COLO 205 colon) was 30.8 µM and the TGI (DU-145 prostate) was 24.6 µM. For the same compound, the TGI (EKVX NSCLC) was 19.9 µM, the TGI (HCC-2998 colon) was 4.93 µM and the TGI (HCT-116 colon) was 17.7 µM. It also gave a TGI (HCT-15 colon) of 28.4 µM, a TGI (HL-60(TB) leukemia) of 5.42 µM and a TGI (HOP-62 NSCLC) of 27.4 µM. It also gave a TGI (HOP-92 NSCLC) of 11.8 µM, a TGI (HS 578T breast) of 27.3 µM and a TGI (HT29 colon) of 25.5 µM. The TGI (IGROV1 ovarian) was 31.3 µM, the TGI (K-562 leukemia) was 35 µM and the TGI (KM12 colon) was 25.4 µM. It also gave a TGI (LOX IMVI melanoma) of 19 µM, a TGI (M14 melanoma) of 18.3 µM and a TGI (MALME-3M melanoma) of 7.41 µM. The TGI (MCF7 breast) was 41.3 µM, the TGI (MDA-MB-231 breast) was 24.3 µM and the TGI (MDA-MB-435) was 13.6 µM. It also gave a TGI (MDA-N) of 14.5 µM, a TGI (MOLT-4 leukemia) of 5.45 µM and a TGI (NCI-H226 lung) of 34.7 µM. For the same compound, the TGI (NCI-H23 lung) was 37.2 µM, the TGI (NCI-H460 lung) was 23.7 µM and the TGI (NCI-H522 lung) was 19.1 µM. For the same compound, the TGI (NCI/ADR-RES ovarian) was 46.3 µM, the TGI (OVCAR-3 ovarian) was 16.9 µM and the TGI (OVCAR-4 ovarian) was 21.8 µM. The TGI (OVCAR-5 ovarian) was 12.6 µM, the TGI (OVCAR-8 ovarian) was 24.4 µM and the TGI (PC-3 prostate) was 18.4 µM. For the same compound, the TGI (RPMI-8226 leukemia) was 30.9 µM, the TGI (RXF 393 renal) was 24.2 µM and the TGI (SF-268 CNS) was 19.9 µM. The TGI (SF-295 CNS) was 31.8 µM, the TGI (SF-539 CNS) was 24.5 µM and the TGI (SK-MEL-2 melanoma) was 22.4 µM. For the same compound, the TGI (SK-MEL-28 melanoma) was 13.3 µM, the TGI (SK-MEL-5 melanoma) was 4.82 µM and the TGI (SK-OV-3 ovarian) was 28.5 µM. The TGI (SN12C renal) was 5.58 µM, the TGI (SNB-19 CNS) was 21.4 µM and the TGI (SNB-75 CNS) was 17.6 µM. The TGI (SR leukemia) was 21.5 µM, the TGI (SW-620 colon) was 25.4 µM and the TGI (T-47D breast) was 37 µM. The TGI (TK-10 renal) was 27.8 µM, the TGI (U251 CNS) was 16.8 µM and the TGI (UACC-257 melanoma) was 15.3 µM. For the same compound, the TGI (UACC-62 melanoma) was 24.1 µM and the TGI (UO-31 renal) was 18.3 µM.
CC(=O)Nc1ccc(S(=O)(=O)/N=C2\C=CC(=O)c3ccccc32)cc1 was tested, and the TGI (786-0 renal) was 26.4 µM, the TGI (A498 renal) was 21.2 µM and the TGI (A549 NSCLC) was 29.7 µM. It also gave a TGI (ACHN renal) of 16.4 µM, a TGI (BT-549 breast) of 25.3 µM and a TGI (CAKI-1 renal) of 35.7 µM. The TGI (CCRF-CEM leukemia) was 27.7 µM, the TGI (COLO 205 colon) was 26.9 µM and the TGI (DU-145 prostate) was greater than 57.2 µM. It also gave a TGI (EKVX NSCLC) of 22 µM, a TGI (HCC-2998 colon) of 10.7 µM and a TGI (HCT-116 colon) of 22.8 µM. For the same compound, the TGI (HCT-15 colon) was 16.1 µM, the TGI (HL-60(TB) leukemia) was 11.2 µM and the TGI (HOP-62 NSCLC) was 22.8 µM. For the same compound, the TGI (HOP-92 NSCLC) was 21.7 µM, the TGI (HS 578T breast) was 26.1 µM and the TGI (HT29 colon) was 33.7 µM. The TGI (IGROV1 ovarian) was 10.7 µM, the TGI (K-562 leukemia) was 9.13 µM and the TGI (KM12 colon) was 40.5 µM. The TGI (LOX IMVI melanoma) was 15.2 µM, the TGI (M14 melanoma) was 11.1 µM and the TGI (MALME-3M melanoma) was 9.66 µM. The TGI (MCF7 breast) was 12.2 µM, the TGI (MDA-MB-231 breast) was 10.7 µM and the TGI (MDA-MB-435) was 3.36 µM. The TGI (MDA-N) was 3.59 µM, the TGI (MOLT-4 leukemia) was 1.25 µM and the TGI (NCI-H226 lung) was 18.1 µM. It also gave a TGI (NCI-H23 lung) of 13.3 µM, a TGI (NCI-H460 lung) of 28.5 µM and a TGI (NCI-H522 lung) of 29 µM. The TGI (NCI/ADR-RES ovarian) was 22.9 µM, the TGI (OVCAR-3 ovarian) was 10.3 µM and the TGI (OVCAR-4 ovarian) was 8.6 µM. It also gave a TGI (OVCAR-5 ovarian) of 20.6 µM, a TGI (OVCAR-8 ovarian) of 9.13 µM and a TGI (PC-3 prostate) of 15.4 µM. The TGI (RPMI-8226 leukemia) was 25.9 µM, the TGI (RXF 393 renal) was 15.6 µM and the TGI (SF-268 CNS) was 17.2 µM. It also gave a TGI (SF-295 CNS) of 15.1 µM, a TGI (SF-539 CNS) of 15.6 µM and a TGI (SK-MEL-2 melanoma) of 32.1 µM. It also gave a TGI (SK-MEL-28 melanoma) of 24.4 µM, a TGI (SK-MEL-5 melanoma) of 8.7 µM and a TGI (SK-OV-3 ovarian) of 33.8 µM. For the same compound, the TGI (SN12C renal) was 11.9 µM, the TGI (SNB-19 CNS) was 28.3 µM and the TGI (SNB-75 CNS) was 14.1 µM. For the same compound, the TGI (SR leukemia) was 11.8 µM, the TGI (SW-620 colon) was 47.6 µM and the TGI (T-47D breast) was greater than 83 µM. It also gave a TGI (TK-10 renal) of 36.9 µM, a TGI (U251 CNS) of 14.2 µM and a TGI (UACC-257 melanoma) of 12.4 µM. The TGI (UACC-62 melanoma) was 12.2 µM and the TGI (UO-31 renal) was 20 µM.
